The conditions of series [1]: for log P (HCOOH) / logp [b]: pH 2.7; for logp [a]: pH 2.3; for logp [c]: pH 7.8.
Source text: (§1) The determination is effected in the acidic range at pH 2.3 using 0.1% aqueous phosphoric acid and acetonitrile as eluents; linear gradient from 10% acetonitrile to 95% acetonitrile. • ^[b] The LC-MS determination in the acidic range is effected at pH 2.7 using 0.1% aqueous formic acid and acetonitrile (contains 0.1% formic acid) as eluents; linear gradient from 10% acetonitrile to 95% acetonitrile. • ^[c] The LC-MS determination in the neutral range is effected at pH 7.8 using 0.001 molar aqueous ammonium hydrogencarbonate solution and acetonitrile as eluents; linear gradient from 10% acetonitrile to 95% acetonitrile.
(§2) The calibration is effected with unbranched alkan-2-ones (having 3 to 16 carbon atoms) with known log P values (determination of the log P values using the retention times by linear interpolation between two successive alkanones).
The subject of a further series is Plasmopara viticola. Description: Plasmopara test (grapevine)/protective. The series is classed as in vivo. The note with it: grapevine plants, protective spray, 10 ppm active ingredient, evaluation 6 days after inoculation, 0% = control, 100% = no infection; for pest or weed control at 10 ppm: Plasmopara viticola, 144 h, read-out: efficacy. The protocol:
Plasmopara Test (Grapevine)/Protective
To prepare an appropriate active ingredient preparation, 1 part by weight of active ingredient is mixed with the stated amounts of solvent and emulsifier, and the concentrate is diluted with water to the desired concentration.
To test for protective efficacy, young plants are sprayed with the active ingredient preparation at the stated application rate. After the spray coating has dried on, the plants are inoculated with an aqueous spore suspension of Plasmopara viticola and then remain in an incubation cabinet at about 20° C. and 100% relative atmospheric humidity for 1 day. The plants are then placed in a greenhouse at approx. 21° C. and approx. 90% air humidity for 4 days. The plants are then moistened and placed in an incubation cabinet for 1 day.
Evaluation follows 6 days after the inoculation.

The next series concerns Phytophthora infestans. Briefly: whole plant or invertebrate. The note with it: for efficacy: tomato plants, protective spray, 10 ppm active ingredient, evaluation 3 days after inoculation, 0% = control, 100% = no infection; for pest or weed control at 10 ppm: Phytophthora infestans, in Solanum lycopersicum, 72 h, read-out: efficacy. It is filed as in vivo.

Source text for physchem: as §1, §2

`CC(C)(C)OC(=O)N1CCC(F)(c2nc(C=NO)cs2)CC1` (mixture of isomers) [tert-Butyl 4-fluoro-4-{4-[(E/Z)-(hydroxyimino)methyl]-1,3-thiazol-2-yl}piperidine-1-carboxylate]: the “log P (HCOOH)” value in series [1] is given as 2.53.

For `O=C(Cn1nc(C(F)F)cc1C(F)F)N1CCC(c2nc(C3=NOC(c4c(F)cccc4F)C3)cs2)CC1` (racemic) [I-2], the efficacy worked out at 100% with Plasmopara viticola and 99% in the series on Phytophthora infestans. Moreover, the “logp [b]” value in series [1] was 3.14^[b].

As for `O=C(Cn1nc(C(F)F)cc1C(F)F)N1CCC(F)(c2nc(C3=NOC(c4ccccc4F)C3)cs2)CC1` (racemic) [I-4], the efficacy with Plasmopara viticola came out at 100%. Besides, the “logp [b]” value in series [1] was 3.49^[b].

Consider `CC(=O)c1cccc(C2CC(c3csc(C4CCN(C(=O)Cn5nc(C(F)F)cc5C(F)F)CC4)n3)=NO2)c1` (racemic) [I-8], for which the efficacy in the series with Plasmopara viticola is 99%; in the series with Phytophthora infestans, 97%. For the same compound, the “logp [b]” value in series [1] was 2.78^[b].

For the compound `CC#CCOc1cccc(C2CC(c3csc(C4CCN(C(=O)Cn5nc(C(F)F)cc5C(F)F)CC4)n3)=NO2)c1` (racemic) [I-15], the efficacy in the series on Plasmopara viticola turned out to be 93%. Further, in series [1], the “logp [a]” value is 3.29^[a] and the “logp [c]” value is 3.33^[c];. The compound further showed an efficacy in the series with Phytophthora infestans of 95%.

In the case of `CCCCOCc1ccccc1C1CC(c2csc(C3CCN(C(=O)Cn4nc(C(F)F)cc4C(F)F)CC3)n2)=NO1` (racemic) [I-16], in series [1], the “logp [b]” value was 4.24^[b].

Consider `C#CCOc1cccc(C2CC(c3csc(C4CCN(C(=O)Cn5nc(C(F)F)cc5C(F)F)CC4)n3)=NO2)c1` (racemic) [I-21], for which the efficacy in the series on Plasmopara viticola is on record as 100%. In series [1], the “logp [a]” value is 3.24^[a] and the “logp [c]” value is 3.16^[c];. Moreover, in the series on Phytophthora infestans, the efficacy worked out at 98%.

`CC#CCOc1cccc(F)c1C1CC(c2csc(C3CCN(C(=O)Cn4nc(C(F)F)cc4C(F)F)CC3)n2)=NO1` (racemic) [I-29]: in series [1], the “logp [a]” value is 3.46^[a]; and the “logp [c]” value was 3.42^[c].

Regarding `C#CCOc1cccc(F)c1C1CC(c2csc(C3CCN(C(=O)Cn4nc(C(F)F)cc4C(F)F)CC3)n2)=NO1` (racemic) [I-30], in series [1], the “logp [a]” value was 3.18^[a]; and the “logp [c]” value is 3.15^[c].

On to `O=C(Oc1ccccc1C1CC(c2csc(C3CCN(C(=O)Cn4nc(C(F)F)cc4C(F)F)CC3)n2)=NO1)C1CC1` (racemic) [I-33], for which, in series [1], the “logp [a]” value was 3.34^[a] and the “logp [c]” value is 3.28^[c];.

On to `CCC#CCOc1cccc(C2CC(c3csc(C4CCN(C(=O)Cn5nc(C(F)F)cc5C(F)F)CC4)n3)=NO2)c1` (racemic) [I-34], for which, in series [1], the “logp [a]” value was 3.83^[a] and the “logp [c]” value is 3.74^[c];.

Take `CC#CCOc1ccccc1C1CC(c2csc(C3CCN(C(=O)Cn4nc(C(F)F)cc4C(F)F)CC3)n2)=NO1` (racemic) [I-35]: in series [1], the “logp [a]” value was 3.65^[a] and the “logp [c]” value was 3.55^[c];. Moreover, the efficacy with Phytophthora infestans amounted to 88%.

For `O=C(CC(F)(F)F)Oc1ccccc1C1CC(c2csc(C3CCN(C(=O)Cn4nc(C(F)F)cc4C(F)F)CC3)n2)=NO1` (racemic) [I-36], in series [1], the “logp [a]” value was 9.43^[a]; and the “logp [c]” value was 3.52^[c].

In the case of `CCC#CCOc1ccc(C2CC(c3csc(C4CCN(C(=O)Cn5nc(C(F)F)cc5C(F)F)CC4)n3)=NO2)cc1` (racemic) [I-47], in series [1], the “logp [a]” value is 3.76^[a] and the “logp [c]” value was 3.74^[c];.

As for `CC#CCOc1ccc(C2CC(c3csc(C4CCN(C(=O)Cn5nc(C(F)F)cc5C(F)F)CC4)n3)=NO2)cc1` (racemic) [I-48], in series [1], the “logp [a]” value was 3.43^[a] and the “logp [c]” value was 3.42^[c];.

For the compound `O=C(Cn1nc(C(F)F)cc1C(F)F)N1CCC(c2nc(C3=NOC(c4ccccc4COCC(F)(F)F)C3)cs2)CC1` (racemic) [I-52], in series [1], the “logp [b]” value was 3.4^[b] and the “logp [c]” value is 3.6^[c];.

With `CCS(=O)(=O)Cc1ccccc1C1CC(c2csc(C3CCN(C(=O)Cn4nc(C(F)F)cc4C(F)F)CC3)n2)=NO1` (racemic) [I-53], the “logp [b]” value in series [1] was 2.76^[b].

Turning to `O=C(Cn1nc(C(F)F)cc1C(F)F)N1CCC(c2nc(C=NO)cs2)CC1` [2-(1-{[3,5-Bis(difluoromethyl)-1H-pyrazol-1-yl]acetyl}piperidin-4-yl)-1,3-thiazole-4-carbaldehyde oxime], the chromatographic logP (commonly a lipophilicity value derived from retention on a column) in “physchem” (pH 2.7, log P (HCOOH)) worked out at 1.93. Also, the “log P (HCOOH)” value in series [1] turned out to be 1.98.

`N=C(N)SCc1ccccc1C1CC(c2csc(C3CCN(C(=O)Cn4nc(C(F)F)cc4C(F)F)CC3)n2)=NO1` (stereo not drawn) [2-{3-[2-(1-{[3,5-Bis(difluoromethyl)-1H-pyrazol-1-yl]acetyl}piperidin-4-yl)-1,3-thiazol-4-yl]-4,5-dihydro-1,2-oxazol-5-yl}benzyl imidothiocarbamate]: in series [1], the “log P (HCOOH)” value came out at 1.68.

Take `O=C(Cn1nc(C(F)F)cc1C(F)F)N1CCC(F)(c2nc(C3=NOC(c4ccccc4)C3)cs2)CC1` (stereo not drawn) [I-5, 2-[3,5-bis(difluoromethyl)-1H-pyrazol-1-yl]-1-{4-fluoro-4-[4-(5-phenyl-4,5-dihydro-1,2-oxazol-3-yl)-1,3-thiazol-2-yl]piperidin-1-yl}ethanone]: the chromatographic logP in the series “physchem” (pH 2.7, log P (HCOOH)) amounted to 3.41; in “physchem” (pH 2.7, logp [b]) it was 3.41. In addition, the pest or weed control at 10 ppm in the series with Plasmopara viticola is 97%; with Phytophthora infestans, 93%.

For `O=C(Cn1nc(C(F)F)cc1C(F)F)N1CCC(c2nc(C3=NOC(c4ccccc4O)C3)cs2)CC1` (stereo not drawn) [I-9, 2-[3,5-Bis(difluoromethyl)-1H-pyrazol-1-yl]-1-(4-{4-[5-(2-hydroxyphenyl)-4,5-dihydro-1,2-oxazol-3-yl]-1,3-thiazol-2-yl}piperidin-1-yl)ethanone], the chromatographic logP in “physchem” (pH 2.3) was 2.58; in the series “physchem” (pH 7.8, logp [c]) it was 2.6. Also, the pest or weed control at 10 ppm in the series on Plasmopara viticola amounted to 99%; in the series with Phytophthora infestans, 96%.

For `O=C(Cn1nc(C(F)F)cc1C(F)F)N1CCC(c2nc(C3=NOC(c4ccccc4[N+](=O)[O-])C3)cs2)CC1` (stereo not drawn) [I-10, 2-[3,5-Bis(difluoromethyl)-1H-pyrazol-1-yl]-1-(4-{4-[5-(2-nitrophenyl)-4,5-dihydro-1,2-oxazol-3-yl]-1,3-thiazol-2-yl}piperidin-1-yl)ethanone], the chromatographic logP in “physchem” (pH 2.7, logp [b]) was determined as 3.19. Moreover, the pest or weed control at 10 ppm is 100% in the series on Plasmopara viticola and 97% in the series on Phytophthora infestans.

On to `C=CCOc1ccccc1C1CC(c2csc(C3CCN(C(=O)Cn4nc(C(F)F)cc4C(F)F)CC3)n2)=NO1` (stereo not drawn) [I-14, 1-[4-(4-{5-[2-(Allyloxy)phenyl]-4,5-dihydro-1,2-oxazol-3-yl}-1,3-thiazol-2-yl)piperidin-1-yl]-2-[3,5-bis(difluoromethyl)-1H-pyrazol-1-yl]ethanone], for which the chromatographic logP turned out to be 3.63 in “physchem” (pH 2.7, logp [b]) and 3.65 in “physchem” (pH 7.8, logp [c]). The results for the pest or weed control at 10 ppm in the series with Plasmopara viticola and in the series with Phytophthora infestans were 100% and 98%, respectively.

Consider `COCCOc1ccccc1C1CC(c2csc(C3CCN(C(=O)Cn4nc(C(F)F)cc4C(F)F)CC3)n2)=NO1` (stereo not drawn) [I-19, 2-[3,5-Bis(difluoromethyl)-1H-pyrazol-1-yl]-1-[4-(4-{5-[2-(2-methoxyethoxy)phenyl]-4,5-dihydro-1,2-oxazol-3-yl}-1,3-thiazol-2-yl)piperidin-1-yl]ethanone], for which the chromatographic logP in “physchem” (pH 2.7, logp [b]) stood at 3.26; in the series “physchem” (pH 7.8, logp [c]), 3.18. Moreover, the pest or weed control at 10 ppm in the series with Plasmopara viticola and in the series with Phytophthora infestans was 96% throughout.

For `CC(C)=CCOc1ccccc1C1CC(c2csc(C3CCN(C(=O)Cn4nc(C(F)F)cc4C(F)F)CC3)n2)=NO1` (stereo not drawn) [I-20, 2-[3,5-Bis(difluoromethyl)-1H-pyrazol-1-yl]-1-{4-[4-(5-{2-[(3-methylbut-2-en-1-yl)oxy]phenyl}-4,5-dihydro-1,2-oxazol-3-yl)-1,3-thiazol-2-yl]piperidin-1-yl}ethanone], the chromatographic logP in “physchem” (pH 2.7, logp [b]) was 4.19; in “physchem” (pH 7.8, logp [c]), 4.11. In addition, the pest or weed control at 10 ppm was determined as 98% in the series on Plasmopara viticola and 95% with Phytophthora infestans.

For `O=Cc1ccccc1C1CC(c2csc(C3CCN(C(=O)Cn4nc(C(F)F)cc4C(F)F)CC3)n2)=NO1` (stereo not drawn) [I-26, 2-{3-[2-(1-{[3,5-Bis(difluoromethyl)-1H-pyrazol-1-yl]acetyl}piperidin-4-yl)-1,3-thiazol-4-yl]-4,5-dihydro-1,2-oxazol-5-yl}benzaldehyde], the chromatographic logP in “physchem” (pH 2.7, logp [b]) is 2.98. In addition, the values for the pest or weed control at 10 ppm in the series with Plasmopara viticola and in the series with Phytophthora infestans were 100% and 97%, respectively.

With `Nc1ccccc1C1CC(c2csc(C3CCN(C(=O)Cn4nc(C(F)F)cc4C(F)F)CC3)n2)=NO1` (stereo not drawn) [I-41, 1-(4-{4-[5-(2-Aminophenyl)-4,5-dihydro-1,2-oxazol-3-yl]-1,3-thiazol-2-yl}piperidin-1-yl)-2-[3,5-bis(difluoromethyl)-1H-pyrazol-1-yl]ethanone], the chromatographic logP in “physchem” (pH 2.3) was determined as 2.7; in “physchem” (pH 7.8, logp [c]), 2.71. The pest or weed control at 10 ppm in the series on Plasmopara viticola was 100%; in the series with Phytophthora infestans, 94%.

Take “tert-Butyl 4-[4-(5-{2-[(cyclopropylmethoxy)carbonyl]phenyl}-4,5-dihydro-1,2-oxazol-3-yl)-1,3-thiazol-2-yl]piperidine-1-carboxylate [X-a-10]”: in series [1], the “log P (HCOOH)” value was determined as 4.99.
